Data: patent US7169932B2 (priority 2001, dated 2007)
Read-outs that look alike come from different tables or passages of the source.

How the values were obtained:
[1] = biological target: T1, HIV-1 protease (Q7S) (Human immunodeficiency virus type 1 group M subtype B, UniProt P04585, Q495S); assay: HIV-1 Protease RET Assay; type: biochemical
T1 construct: made in house
Description: Ki's for the inhibitors of HIV-1 protease were determined using a resonance energy transfer (RET) assay. […] This enzyme is first partially purified as inclusion bodies from cell lysate. It is then solublized in 8M urea and passed through a Q-Sepharose column (Pharmacia) for further purification. To refold this protein, samples containing Q7S is dialyzed into 50 mM sodium phosphate pH 7.0, 50 mM NaCl, 10 mM DTT, and 10% glycerol.
The commercially available peptide substrate (Molecular Probes Cat. # H-2930) RE(EDANS)SQNYPIVQK(DABCYL)R is used to assess activity and Ki's. This peptide is cleaved quantitatively by HIV-1 Pr at the Tyr-Pro bond. The EDANS fluorophore absorbs at 340 nm and emits at 490 nm. The reaction is carried out in a 96 well plate in a total volume of 100 μL and is run for 12 minutes at 37 C under steady-state conditions with 5 μM substrate and 2 nM active dimer enzyme concentration. The literature value Km for this substrate and enzyme is 103+/−8 μM (See Matayoshi, et al., “Novel Fluorogenic Substrates for Assaying Retroviral Proteases by Resonance Energy Transfer,” Science 247, 954 (1990)). The buffer for this reaction is 0.1M sodium acetate pH 4.8, 1M NaCl, 1 mM EDTA, 5 mM dithiothreitol, 10% dimethyl sulfoxide and 1 mg/ml bovine serum albumin. Inhibition curves are fit using the Morrison tight binding equation.

[2] = tested on: HIV-1; assay: Cytopathic Effect (CPE) Inhibition Assay (XTT dye reduction); type: cell-based
Description: T-cell lines, CEM-SS, and MT-2, and viruses HIV-1 RF and HIV-1 NL4–3 (pNL4–3) were obtained from the National Institutes of Health (AIDS Research and Reference Reagent Program, Bethesda, Md.).
The ability of compounds to protect cells against HIV infection was measured by the […] dye reduction method, essentially as described (See Pauwels, R. Balzarini, J. Baba, M. Snoeck, R. Schols, D. Herdewijn, P. Desmyter, J. and De Clercq, E. 1988, “Rapid and automated tetrazolium-based colorimetric assay for the detection of anti-HIV compounds,”. J Virol Methods., 20: 309–321 and Weislow, O. S. Kiser, R. Fine, D. L. Bader, J. Shoemaker, R. H. and Boyd, M. R. 1989. “New soluble-formazan assay for HIV-1 cytopathic effects: application to high-flux screening of synthetic and natural products for AIDS-antiviral activity”. J. Natl. Cancer Inst. 81:577–586). Subject cells were infected with test virus at an moi of 0.025 to 0.819 or mock infected with medium only and added at 2×10^4 cells per well into 96 well plates containing half-log dilutions of test compounds. Six days later, 50 μl of XTT (1 mg/ml XTT tetrazolium, […] phenazine methosulfate) was added to the wells and the plate was reincubated for four hours. Viability, as determined by the amount of XTT formazan produced, was quantified spectrophotometrically by absorbance at 450 nm. Data from CPE assays were expressed as the percent of formazan produced in compound-treated cells compared to formazan produced in wells of uninfected, compound-free cells. The fifty percent effective concentration (EC50) was calculated as the concentration of compound that effected an increase in the percentage of formazan production in infected, compound-treated cells to 50% of that produced by uninfected, compound-free cells. The 50% cytotoxicity concentration (CC50) was calculated as the concentration of compound that decreased the percentage of formazan produced in uninfected, compound-treated cells to 50% of that produced in uninfected, compound-free cells. The therapeutic index was calculated by dividing the cytotoxicity (CC50) by the antiviral activity (EC50).

[3] = Ki, table of drawn compounds, unit inferred
[4] = Ave. Ki (nM), RET assay, Q7S enzyme, pH 4.8, 37 C
[5] = Human immunodeficiency virus 1, 144 h, read-out: Ave CPE EC50 (mM)

SMILES	Ki [1, 3] [nM]	EC50 ([2]; Human immunodeficiency virus 1) [µM]	Ki [1, 4] [nM]	EC50 [2, 5] [µM]
Cc1ncc(C(=O)N[C@@H](Cc2ccccc2)[C@H](O)C(=O)N2CSC(C)(C)[C@H]2C(=O)NCc2ccccc2C)c(=O)[nH]1	209	≥ 10		
Cc1ccccc1CNC(=O)[C@H]1N(C(=O)[C@@H](O)[C@H](Cc2ccccc2)NC(=O)c2cnc(C(F)(F)F)[nH]c2=O)CSC1(C)C	1700	≥ 10		
Cc1c(O)cccc1C(=O)N[C@@H](Cc1ccccc1)[C@H](O)C(=O)N1CSC(C)(C)[C@H]1C(=O)NCC(C)(C)C	≤ 0.1	0.053		
Cc1c(O)cccc1C(=O)N[C@@H](Cc1ccccc1)[C@H](O)C(=O)N1CSC(C)(C)C1C(=O)NCCC(C)C (some centres unmarked)	≤ 0.1	0.072		
Cc1cccc(CNC(=O)[C@H]2N(C(=O)[C@@H](O)[C@H](Cc3ccccc3)NC(=O)c3cccc(O)c3C)CSC2(C)C)c1	1.5	0.076		
Cc1c(Cl)cccc1CNC(=O)[C@H]1N(C(=O)[C@@H](O)[C@H](Cc2ccccc2)NC(=O)c2cccc(O)c2C)CSC1(C)C	0.2	0.113		
Cc1ccc(CNC(=O)[C@H]2N(C(=O)[C@@H](O)[C@H](Cc3ccccc3)NC(=O)c3cccc(O)c3C)CSC2(C)C)cc1	0.73	0.141		
Cc1c(O)cccc1C(=O)N[C@@H](Cc1ccccc1)[C@H](O)C(=O)N1CSC(C)(C)[C@H]1C(=O)NCc1cc(F)cc(F)c1	0.36	0.144		
COCCNC(=O)[C@H]1N(C(=O)[C@@H](O)[C@H](Cc2ccccc2)NC(=O)c2cccc(O)c2C)CSC1(C)C	0.24	0.158		
Cc1cc(Cl)ccc1CNC(=O)[C@H]1N(C(=O)[C@@H](O)[C@H](Cc2ccccc2)NC(=O)c2cccc(O)c2C)CSC1(C)C	0.26	0.207		
Cc1c(O)cccc1C(=O)N[C@@H](Cc1ccccc1)[C@H](O)C(=O)N1CSC(C)(C)[C@H]1C(=O)NCc1cc(F)c(F)cc1F	0.17	0.289		
Cc1c(O)cccc1C(=O)N[C@@H](Cc1ccccc1)[C@H](O)C(=O)N1CSC(C)(C)[C@H]1C(=O)NCc1ccc(F)c(F)c1F	0.11	0.334		
Cc1ccccc1CNC(=O)[C@H]1N(C(=O)[C@@H](O)[C@H](Cc2ccccc2)NC(=O)c2ccccc2Cl)CSC1(C)C	0.2	0.585		
Cc1ccc(C(=O)N[C@@H](Cc2ccccc2)[C@H](O)C(=O)N2CSC(C)(C)[C@H]2C(=O)CCC(F)(F)F)c(C)c1O	9.6	0.723		
Cc1c(O)cccc1C(=O)N[C@@H](Cc1ccccc1)[C@H](O)C(=O)N1CSC(C)(C)[C@H]1C(=O)NCCC(C)(C)C	4.7	1.06		
Cc1c(O)cccc1C(=O)N[C@@H](Cc1ccccc1)[C@H](O)C(=O)N1CSC(C)(C)[C@H]1C(=O)NCc1cccc(OCC(C)C)c1	1.1	1.11		
Cc1c(O)cccc1C(=O)N[C@@H](Cc1ccccc1)[C@H](O)C(=O)N1CSC(C)(C)[C@H]1C(=O)c1ccccc1	2.5	1.22		
Cc1cc(C(=O)N[C@@H](Cc2ccccc2)[C@H](O)C(=O)N2CSC(C)(C)[C@H]2C(=O)NCc2ccccc2C)no1	2.6	1.31		
COc1cccc(CNC(=O)[C@H]2N(C(=O)[C@@H](O)[C@H](Cc3ccccc3)NC(=O)c3ccc(C)c(O)c3C)CSC2(C)C)c1	3.7	1.33		

SMILES	Ki [1, 3] [nM]	EC50 ([2]; Human immunodeficiency virus 1) [µM]	Ki [1, 4] [nM]	EC50 [2, 5] [µM]
Cc1ccccc1CNC(=O)[C@H]1N(C(=O)[C@@H](O)[C@H](Cc2ccccc2)NC(=O)c2csc(N)n2)CSC1(C)C	2.3	1.38		
Cc1c(O)cccc1C(=O)N[C@@H](Cc1ccccc1)[C@H](O)C(=O)N1CSC(C)(C)[C@H]1C(=O)NCc1ccc(C(F)(F)F)cc1F	11.1	1.4		
CCC/C=C/CNC(=O)[C@H]1N(C(=O)[C@@H](O)[C@H](Cc2ccccc2)NC(=O)c2cccc(O)c2C)CSC1(C)C	2.6	1.42		
COc1ccccc1C(=O)N[C@@H](Cc1ccccc1)[C@H](O)C(=O)N1CSC(C)(C)[C@H]1C(=O)NCc1ccccc1C	2.1	1.49		
Cc1ccccc1CNC(=O)[C@H]1N(C(=O)[C@@H](O)[C@H](Cc2ccccc2)NC(=O)N2CCSC2)CSC1(C)C	14	1.51		
Cc1cc(C(=O)N[C@@H](Cc2ccccc2)[C@H](O)C(=O)N2CSC(C)(C)[C@H]2C(=O)NCc2ccccc2C)n[nH]1	19.5	3		
Cc1c(O)cccc1C(=O)N[C@@H](Cc1ccccc1)[C@H](O)C(=O)N1CSC(C)(C)[C@H]1C(=O)NCc1cccc(CN(C)C)c1	10.5	3.2		
C=CCNC(=O)[C@H]1N(C(=O)[C@@H](O)[C@H](Cc2ccccc2)NC(=O)[C@@H]2CCCO2)CSC1(C)C	17.3	3.3		
C#CCNC(=O)[C@H]1N(C(=O)[C@@H](O)[C@H](Cc2ccccc2)NC(=O)[C@@H]2CCCO2)CSC1(C)C	16.8	3.75		
Cc1cc(C(=O)N[C@@H](Cc2ccccc2)[C@H](O)C(=O)N2CSC(C)(C)[C@H]2C(=O)NCc2ccc(Cl)cc2C)no1	28	4.13		
C=CCN(C)C(=O)[C@H]1N(C(=O)[C@@H](O)[C@H](Cc2ccccc2)NC(=O)c2ccno2)CSC1(C)C	24.6	4.95		
Cc1ccccc1CNC(=O)[C@H]1N(C(=O)[C@@H](O)[C@H](Cc2ccccc2)NC(=O)c2c[nH]cn2)CSC1(C)C	55.8	≥ 10		
Cc1ccccc1CNC(=O)[C@H]1N(C(=O)[C@@H](O)[C@H](Cc2ccccc2)NC(=O)c2cc(C(C)(C)C)on2)CSC1(C)C	214	≥ 10		
COc1ccc(C(=O)NC(Cc2ccccc2)C(O)C(=O)N2CSC(C)(C)[C@H]2C(=O)NCc2ccccc2C)c(C)c1 (stereo in doubt) [Example B29, 3-[2-Hydroxy-3-(4-methoxy-2-methyl-benzoylamino)-4-phenyl-butyryl]-5,5-dimethyl-thiazolidine-4-carboxylic acid 2-methyl-benzylamide]			0.12	1.26
Cc1c(O)cccc1C(=O)N[C@@H](Cc1ccccc1)[C@H](O)C(=O)N1CSC(C)(C)[C@H]1C(=O)NCc1cc(F)ccc1C(F)(F)F [Example A5, 3-(2-Hydroxy-3-{[1-(3-hydroxy-2-methyl-phenyl)-methyanoyl]amino}-4-phenyl-butanoyl)-5,5-dimethyl-thiazolidine-4-carboxlic acid fluoro trifluoromethyl-benzylamide]			2	0.433
COc1ccc(CNC(=O)[C@H]2N(C(=O)[C@@H](O)[C@H](Cc3ccccc3)NC(=O)c3cccc(O)c3C)CSC2(C)C)cc1 [Example A6, (R)-3-((2S,3S)-2-Hydroxy-3-{[1-(3-hydroxy-2-methyl-phenyl)-methanoyl]-amino}-4-phenyl-butanoyl)-5,5-dimethyl-thiazolidine-4-carboxylic acid 4-methoxy-benzylamide]			0.22	0.036
Cc1ccsc1CNC(=O)[C@H]1N(C(=O)[C@@H](O)[C@H](Cc2ccccc2)NC(=O)c2cccc(O)c2C)CSC1(C)C [Example A8]			0.23	0.036
Cc1c(O)cccc1C(=O)N[C@@H](Cc1ccccc1)[C@H](O)C(=O)N1CSC(C)(C)[C@H]1C(=O)NCc1ccc(C(F)(F)F)cc1 [Example A9, (R)-3-((2S,3S)-2-Hydroxy-3-{[1-(3-hydroxy-2-methyl-phenyl)-methanoyl]-amino}-4-phenyl-butanoyl)-5,5-dimethyl-thiazolidine-4-carboxylic acid 4-trifluoromethyl-benzylamide]			4	0.565
